Data taken from patent US9453024B2, “Polymorphs of darunavir” (MAPI PHARMA LTD., priority 2009, dated 2016).
Values after ≈ are worked out from the molar mass of the structure shown. Read-outs that look alike come from different tables or passages of the source.

Key:
[1] = Aqueous solubility in buffers, 24 h shaking at 25° C., HPLC; assay type: physicochemical; settings: 24 hours at 25° C.; for solubility at 24 h: 25 °C, thermodynamic from solid
Experimental: The aqueous solubility of the tetrahydrofuran solvate of darunavir of the present invention was measured. Specifically, about 10 mg of the compound was accurately weighed into a 4 ml clear glass vial followed by the addition of 2.5 ml buffer (at different pH) to the vial. The vial was then mounted on a Thermomixer and was kept shaking for 24 hours at 25° C. The solution was filtered through 0.45 μm PTFE filter. The pH value and concentration of the filtrate were checked by pH meter and HPLC (Agilent 1200; Column: Zorbax SB C18, 4.6 mm×150 mm ID×5 μm; Profile of mobile phase: t=0 water 70, ACN 30; t=15,20 water 0, ACN 100; Column temperature 30° C.; Mobile rate 1.0 mL/min; Detector wavelength 265 nm; The typical retention time of Darunavir is 7.7 min), respectively.
(§1) The aqueous solubility of the dimethylsulfoxide solvate of darunavir of the present invention was measured. Specifically, about 10 mg of the compound was accurately weighed into a 4 ml clear glass vial followed by the addition of 2.5 ml buffer (at different pH) to the vial. The vial was then mounted on a Thermomixer and kept shaking for 24 hours at 25° C. The solution was filtered through 0.45 μm PTFE filter. The pH value and concentration of the filtrate were checked by pH meter and HPLC, respectively.
as §1, with “Specifically,” for “The aqueous solubility of the dimethylsulfoxide solvate of darunavir of the present invention was measured. Specifically,”, “respectively. The results are summarized in Table 11 and in FIG. 8 panel C.” for “respectively.”

Bulk density = assay type: physicochemical
[2] = Hygroscopicity (DVS) from 0% to 90%; assay type: physicochemical; settings: for weight gain from 0% to 90% (DVS) / hygroscopicity (in words): 25° C.; for hygroscopicity (in words): DVS 0% to 90%
Experimental: About 10 mg of the tetrahydrofuran solvate form of the present invention were used to test the hygroscopicity (DVS) from 0% to 90% according to the details on Table 2.
About 10 mg of the dimethylsulfoxide solvate form of the present invention were used to test the hygroscopicity (DVS) from 0% to 90% according to the details on Table 2 hereinabove.
The hygroscopicities of the Darunavir forms of the present invention were compared to the hygroscopicity of Darunavir ethanolate API.

[3] = Particle size distribution and surface area; assay type: physicochemical
Experimental: Micronized darunavir dimethylsulfoxide solvate was prepared from the non-micronized form by milling using a jet mill (Super fine vortex Mill™).

[4] = water at 20° C.; cited from earlier work
[5] = listed as tetrahydrofuran solvate form
[6] = pH 1.2 buffer, footnote *degraded
[7] = listed as dimethylsulfoxide solvate form

With CC(C)CN(C[C@@H](O)[C@H](Cc1ccccc1)NC(=O)O[C@H]1CO[C@H]2OCC[C@H]21)S(=O)(=O)c1ccc(N)cc1 [darunavir tetrahydrofuran solvate, [(1S,2R)-3-[[(4-aminophenyl)sulfonyl](2-methylpropyl)amino]-2-hydroxy-1-(phenylmethyl)propyl]-carbamic acid (3R,3aS,6aR)-hexahydrofuro[2,3-b]furan-3-yl ester] the solubility at 24 h ([1]; pH 1.2 buffer, pH 1.2, simulated gastric fluid, footnote *degraded) was 1470 µg/mL, the solubility at 24 h ([1]; pH 4.5 buffer, pH 4.5, aqueous buffer) was 270 µg/mL and the solubility at 24 h ([1]; pH 6.8 buffer, pH 6.8, aqueous buffer) was 240 µg/mL. For the same compound, the solubility at 24 h ([1]; pH 7.4 buffer, pH 7.4, aqueous buffer) was 230 µg/mL, the solubility at 24 h ([1]; water) was 270 µg/mL and the bulk density (Bulk density) was 0.431 ± 0.007 g/mL. For the same compound, the “weight gain from 0% to 90% (DVS)” value [2] was 1.366%, the “weight gain from 0% to 90% (DVS)” value [2, 5] was 1.366% and the “hygroscopicity (in words)” value [2] was “only slightly hygroscopic”. The “hygroscopicity (in words)” value [2, 5] was “slightly hygroscopic”.
For CC(C)CN(C[C@@H](O)[C@H](Cc1ccccc1)NC(=O)O[C@H]1CO[C@H]2OCC[C@H]21)S(=O)(=O)c1ccc(N)cc1 [darunavir dimethylsulfoxide solvate, [(1S,2R)-3-[[(4-aminophenyl)sulfonyl](2-methylpropyl)amino]-2-hydroxy-1-(phenylmethyl)propyl]-carbamic acid (3R,3aS,6aR)-hexahydrofuro[2,3-b]furan-3-yl ester], the Solubility [1, 6] was 1.36* mg/ml, the Solubility ([1]; pH 4.5 buffer) was 0.22 mg/mL and the Solubility ([1]; pH 6.8 buffer) was 0.21 mg/mL. The Solubility ([1]; pH 7.4 buffer) was 0.20 mg/mL, the Solubility ([1]; water) was 0.23 mg/mL and the D10 ([3]; listed as Non-micronized) was 3.9 μm. It also gave a D50 ([3]; listed as Non-micronized) of 29.2 μm, a D90 ([3]; listed as Non-micronized) of 99.7 μm and a Specific surface area ([3]; listed as Non-micronized) of 0.9 m^2/g. For the same compound, the Surface weighted mean ([3]; listed as Non-micronized) was 6.5 μm, the Vol. weighted mean ([3]; listed as Non-micronized) was 42.0 μm and the Dissolution (15 min, 600 mg/vessel, 75 rpm, 900 mL 2.0% Tween-20 in 0.05M sodium phosphate buffer pH 3.0, 37° C., listed as Non-micronized) was 56.83%. For the same compound, the Dissolution (30 min, same medium, listed as Non-micronized) was 81.61%, the Dissolution (45 min, same medium, listed as Non-micronized) was 88.06% and the Dissolution (60 min, same medium, listed as Non-micronized) was 90.45%. The bulk density (Bulk density) was 0.472 ± 0.008 g/mL, the “denser when compared to the bulk density of the known ethanolate form” value (Bulk density) was “approximately 26%” and the “weight gain from 0% to 90% (DVS)” value [2] was 0.9431%. The “weight gain from 0% to 90% (DVS)” value [2, 7] was 0.9431%, the “hygroscopicity (in words)” value [2] was “only slightly hygroscopic” and the “hygroscopicity (in words)” value [2, 7] was “only slightly hygroscopic”.
In the case of CC(C)CN(C[C@@H](O)[C@H](Cc1ccccc1)NC(=O)O[C@H]1CO[C@H]2OCC[C@H]21)S(=O)(=O)c1ccc(N)cc1 [darunavir ethanolate, [(1S,2R)-3-[[(4-aminophenyl)sulfonyl](2-methylpropyl)amino]-2-hydroxy-1-(phenylmethyl)propyl]-carbamic acid (3R,3aS,6aR)-hexahydrofuro[2,3-b]furan-3-yl ester, reference compound], the solubility in water [4] is given as “approximately 0.15 mg/mL”, the bulk density (Bulk density; known ethanolate form, comparator) is given as 0.374 ± 0.009 g/mL and the “weight gain from 0% to 90% (DVS)” value [2] is given as 2.180%. The “hygroscopicity (in words)” value [2] was “hygroscopic” and the “loss of solvate during the desorption measurement” value ([2]; DVS desorption) was “lost the solvate ethanol molecules”.
CC(C)CN(C[C@@H](O)[C@H](Cc1ccccc1)NC(=O)O[C@H]1CO[C@H]2OCC[C@H]21)S(=O)(=O)c1ccc(N)cc1 [[(1S,2R)-3-[[(4-aminophenyl)sulfonyl](2-methylpropyl)amino]-2-hydroxy-1-(phenylmethyl)propyl]-carbamic acid (3R,3aS,6aR)-hexahydrofuro[2,3-b]furan-3-yl ester] gave a D10 ([3]; listed as Micronized) of 1.5 μm, a D50 ([3]; listed as Micronized) of 3.7 μm and a D90 ([3]; listed as Micronized) of 7.2 μm. It also gave a Specific surface area ([3]; listed as Micronized) of 2.6 m^2/g, a Surface weighted mean ([3]; listed as Micronized) of 2.3 μm and a Vol. weighted mean ([3]; listed as Micronized) of 4.1 μm. It also gave a Dissolution (15 min, 600 mg/vessel, 75 rpm, 900 mL 2.0% Tween-20 in 0.05M sodium phosphate buffer pH 3.0, 37° C., listed as Micronized) of 89.30%, a Dissolution (30 min, same medium, listed as Micronized) of 94.72% and a Dissolution (45 min, same medium, listed as Micronized) of 95.98%. The Dissolution (60 min, same medium, listed as Micronized) was 94.95%.
With CC(C)CN(C[C@@H](O)[C@H](Cc1ccccc1)NC(=O)O[C@H]1CO[C@H]2OCC[C@H]21)S(=O)(=O)c1ccc(N)cc1 [amorphous darunavir, [(1S,2R)-3-[[(4-aminophenyl)sulfonyl](2-methylpropyl)amino]-2-hydroxy-1-(phenylmethyl)propyl]-carbamic acid (3R,3aS,6aR)-hexahydrofuro[2,3-b]furan-3-yl ester] the Solubility [1, 6] was 1.73* mg/ml, the Solubility ([1]; pH 4.5 buffer) was 0.27 mg/mL (≈ 493 µM) and the Solubility ([1]; pH 6.8 buffer) was 0.24 mg/mL (≈ 438 µM). It also gave a Solubility ([1]; pH 7.4 buffer) of 0.23 mg/mL (≈ 420 µM), a Solubility ([1]; water) of 0.27 mg/mL (≈ 493 µM) and a bulk density (Bulk density) of 0.445 ± 0.012 g/mL. For the same compound, the “weight gain from 0% to 90% (DVS)” value [2] was 2.617% and the “hygroscopicity (in words)” value [2] was “hygroscopic”.
